The structures appear in SMILES notation.

The record followed here is ChEMBL document CHEMBL1155585, “Cypellocarpins A-C, phenol glycosides esterified with oleuropeic acid, from Eucalyptus cypellocarpa” (J Nat Prod, 2000).

Data set [1] is filed under the species Mus musculus. Nature of the data set: Antitumor activity against (+/-)-(E)-4-methyl-2-[(E)-hydroxyimino]-6-methoxy-5-nitro-3-hexenamide/TPA-induced carcinogenesis in mouse assessed as reduction in number of tumor bearing mouse at 50 molar ratio/TPA after 10 weeks relative to control. The class given is functional. On the set-up: scale not given: the % may be the effect or the level left.

A short description of data set [2]: Cytotoxicity against human Raji cells assessed as cell viability at 1000 molar ratio/TPA. It counts as cell-based. Conditions: read-out: Activity.
Data set [3] is filed under the species Mus musculus. Nature of the data set: Antitumor activity against (+/-)-(E)-4-methyl-2-[(E)-hydroxyimino]-6-methoxy-5-nitro-3-hexenamide/TPA-induced carcinogenesis in mouse assessed as reduction in number of tumor bearing mouse at 50 molar ratio/TPA after 20 weeks relative to control. It counts as functional. On the set-up: scale not given: the % may be the effect or the level left.

In the case of `Cc1c(O[C@@H]2O[C@H](CO)[C@@H](O)[C@H](O)[C@H]2O)c(C=O)c(O)c2c1OC(C)(C)C=C2`, the Activity in the data set filed under Mus musculus [1] was determined as 30%. Also, in data set [2], the viability at 1000 molar ratio/TPA amounted to 60%.
The corresponding values for `Cc1cc(=O)c2c(O)cc(O[C@@H]3O[C@H](COC(=O)C4=CC[C@H](C(C)(C)O)CC4)[C@@H](O)[C@H](O)[C@H]3O)cc2o1` [CYPELLOCARPA C] are 30% and 70%.
As to `CC(C)(O)[C@H]1CC=C(C(=O)OC[C@H]2O[C@@H](Oc3cc(C(=O)O)cc(O)c3O)[C@H](O)[C@@H](O)[C@@H]2O)CC1` [CYPELLOCARPIN A], the viability at 1000 molar ratio/TPA in data set [2] turned out to be 70%.
Consider `CC1(O)CC(=O)c2c(O)cc(O[C@@H]3O[C@H](COC(=O)C4=CC[C@H](C(C)(C)O)CC4)[C@@H](O)[C@H](O)[C@H]3O)cc2O1` (stereo partly drawn) [CYPELLOCARPIN B], for which the results for the Activity in the data set listed under Mus musculus [1] and in the data set listed under Mus musculus [3] were 30% and 58%, respectively. Besides, the viability at 1000 molar ratio/TPA in data set [2] came out at 70%.
